Experimental data as given in ChEMBL document CHEMBL4431356, “Synthesis and activity of benzimidazole-1,3-dioxide inhibitors of separase” (Bioorg Med Chem Lett, 2016).

What follows are molecules tested against T1, Separin (Homo sapiens, UniProt Q14674) (assay: Inhibition of human ZZ TEV4-tagged separase expressed in human 293T cells using (Rad21)2-Rh110 as substrate preincubated for 1 hr followed by substrate addition measured after 3 hrs by fluorescence assay).
T1 sequence (Q14674 whole entry): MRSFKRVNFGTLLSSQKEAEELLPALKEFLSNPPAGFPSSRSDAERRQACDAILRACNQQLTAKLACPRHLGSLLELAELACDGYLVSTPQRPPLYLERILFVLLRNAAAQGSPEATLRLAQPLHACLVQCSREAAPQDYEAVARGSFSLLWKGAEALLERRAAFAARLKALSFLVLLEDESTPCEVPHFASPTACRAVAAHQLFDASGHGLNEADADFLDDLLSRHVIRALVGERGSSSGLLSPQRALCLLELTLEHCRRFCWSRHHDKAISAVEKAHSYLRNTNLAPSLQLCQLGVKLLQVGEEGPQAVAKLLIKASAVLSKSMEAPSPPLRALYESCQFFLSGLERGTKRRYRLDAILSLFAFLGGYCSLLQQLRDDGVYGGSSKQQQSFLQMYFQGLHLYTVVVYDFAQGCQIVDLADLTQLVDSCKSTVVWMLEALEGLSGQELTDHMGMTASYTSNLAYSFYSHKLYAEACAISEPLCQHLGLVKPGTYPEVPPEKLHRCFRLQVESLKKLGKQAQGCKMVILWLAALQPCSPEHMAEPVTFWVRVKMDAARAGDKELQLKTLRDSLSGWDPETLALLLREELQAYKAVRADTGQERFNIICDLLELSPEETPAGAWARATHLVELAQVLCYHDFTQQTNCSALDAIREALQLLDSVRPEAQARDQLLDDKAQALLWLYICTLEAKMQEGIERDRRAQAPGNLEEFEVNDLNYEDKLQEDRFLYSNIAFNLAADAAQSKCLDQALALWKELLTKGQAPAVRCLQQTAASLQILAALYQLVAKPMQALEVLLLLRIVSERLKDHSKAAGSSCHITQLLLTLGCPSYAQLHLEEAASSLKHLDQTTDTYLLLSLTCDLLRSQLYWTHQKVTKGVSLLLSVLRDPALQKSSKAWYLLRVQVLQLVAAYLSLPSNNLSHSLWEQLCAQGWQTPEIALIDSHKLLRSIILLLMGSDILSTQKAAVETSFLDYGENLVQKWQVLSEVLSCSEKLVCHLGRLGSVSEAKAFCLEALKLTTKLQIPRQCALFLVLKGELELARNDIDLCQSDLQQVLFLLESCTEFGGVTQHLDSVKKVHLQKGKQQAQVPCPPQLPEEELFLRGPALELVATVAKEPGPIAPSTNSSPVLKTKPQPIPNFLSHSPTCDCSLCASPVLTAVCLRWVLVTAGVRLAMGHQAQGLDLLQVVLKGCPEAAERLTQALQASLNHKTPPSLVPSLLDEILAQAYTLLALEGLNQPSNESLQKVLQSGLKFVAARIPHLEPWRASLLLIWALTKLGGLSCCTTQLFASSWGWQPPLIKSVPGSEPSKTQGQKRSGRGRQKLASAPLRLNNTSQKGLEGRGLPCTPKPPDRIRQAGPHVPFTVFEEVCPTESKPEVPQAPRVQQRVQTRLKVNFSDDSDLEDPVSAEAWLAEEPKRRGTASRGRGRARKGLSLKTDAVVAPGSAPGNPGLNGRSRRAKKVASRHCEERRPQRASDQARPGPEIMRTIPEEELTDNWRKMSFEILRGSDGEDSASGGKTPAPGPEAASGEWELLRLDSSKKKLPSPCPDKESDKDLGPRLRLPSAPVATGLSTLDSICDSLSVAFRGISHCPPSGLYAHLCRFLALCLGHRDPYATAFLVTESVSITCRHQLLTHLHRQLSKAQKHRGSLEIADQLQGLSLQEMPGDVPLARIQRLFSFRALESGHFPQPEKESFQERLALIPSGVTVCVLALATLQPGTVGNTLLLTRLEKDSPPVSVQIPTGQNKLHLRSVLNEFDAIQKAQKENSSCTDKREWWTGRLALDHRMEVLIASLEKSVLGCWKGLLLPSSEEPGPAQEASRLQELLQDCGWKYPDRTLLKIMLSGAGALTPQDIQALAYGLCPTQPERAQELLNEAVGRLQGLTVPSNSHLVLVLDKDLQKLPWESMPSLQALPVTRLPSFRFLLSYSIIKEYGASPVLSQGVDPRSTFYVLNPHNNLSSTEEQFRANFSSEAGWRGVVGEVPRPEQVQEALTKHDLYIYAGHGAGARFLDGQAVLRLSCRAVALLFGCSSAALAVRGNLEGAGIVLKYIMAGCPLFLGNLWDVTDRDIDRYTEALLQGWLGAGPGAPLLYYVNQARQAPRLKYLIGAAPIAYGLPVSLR
`CC1(C)[N+]([O-])=c2ccc([N+](=O)[O-])cc2=[N+]1[O-]` gave an IC50 of 15 µM.

These molecules were tested against T1, Separin (assay: Inhibition of epitope-tagged separase (unknown origin) using Rad21-MCA as substrate preincubated for 1 hr followed by substrate addition measured after 3 hrs by fluorescence assay).
Molecule `O=[N+]([O-])c1ccc2c(c1)=[N+]([O-])C1(CCCCC1)[N+]=2[O-]` has an IC50 of 16.2 µM.
`CCOc1cc2c(cc1F)=[N+]([O-])C(C)(C)[N+]=2[O-]` showed an IC50 greater than 100 µM.
For `COC(=O)c1ccc2c(c1)[n+]([O-])c(C)c(C)[n+]2[O-]`, the IC50 was greater than 100 µM.
Work on `CC1(C)[N+]([O-])=c2ccc(-c3ccccc3)cc2=[N+]1[O-]` yielded an IC50 greater than 100 µM.
With `CCCCNc1ccc2c(c1)=[N+]([O-])C(C)(C)[N+]=2[O-]` the IC50 was greater than 100 µM.
`CC1(C)[N+]([O-])=c2ccc(C(=O)O)cc2=[N+]1[O-]` gave an IC50 greater than 100 µM.
`CCOc1ccc2c(c1)=[N+]([O-])C(C)(C)[N+]=2[O-]` gave an IC50 greater than 100 µM.
`O=[N+]([O-])c1ccc2nonc2c1` gave an IC50 greater than 100 µM.
`CC1(C)[N+]([O-])=c2ccc(C(F)(F)F)cc2=[N+]1[O-]` showed an IC50 greater than 100 µM.
`COC(=O)c1ccc2c(c1)=[N+]([O-])C(C)(C)[N+]=2[O-]` was tested, and the IC50 was greater than 100 µM.
Molecule `CC1(C)[N+]([O-])=c2ccc(Br)cc2=[N+]1[O-]` has an IC50 greater than 100 µM.
Molecule `CC1(C)[N+]([O-])=c2ccc([N+](=O)[O-])cc2=[N+]1[O-]` has an IC50 of 17.8 µM.
With `CC1(C)[N+]([O-])=c2ccc(F)cc2=[N+]1[O-]` the IC50 was greater than 100 µM.
